Like-named read-outs stand apart in the source and are kept apart here. Where a SMILES comes first, the peptide text is derived from it. Bridges are numbered along the chain shown (N, C = ends).

The target of experiment [1] is cMET. The note with it: cited from earlier work. How it is done:
To answer our questions raised in the introduction, we chose the ectodomain of MET fused to Fc as a selection target for two reasons. (1) Since we previously performed the RaPID campaign using a thioether-macrocyclic peptide library and successfully identified potent ligands with the range of KD of 2–20 nM (Table S1A), this target has been validated as a reliable protein to reproduce the selection experiment.[22] (2) At the time when the selection was performed previously, the NGS technology was unavailable in our laboratory, and thereby the sequences were determined by ∼40 clones available fr ... || page 9: Table S1A. Representative peptide sequences discovered by RaPID system. Residues engaged in thioether- macrocyclization are marked with asterisks. mRNA display (RaPID system) Diversity scale: >1012 Screening KD IC50 Library design/ Consensus motif/ Variants Reference Target (nM) (nM) Note Peptide sequence DW*X2MeSX2MeF-MeG/X- E6AP 0.6 DW*X8-15C* 6 (32) XMeFPC* 92 LY*WIX2TWPXVXRXC* 2 Akt2 L/DY*X4-12C* (33) 110 LY*ILVRNRXLRVDC* 2 3.8 LY*SNFRI-LysTfa-RYSNSSC* 21 SIRT2 L/DY*-Xn-LysTfa-XnC* (34) 3.7 DY*HDYRI-LysTfa-RYHTYPC* 16 94 LF*VVVSTDPWVNGLYIDC* 2 8 LF*IGHYRVKVHPISLERC* 1 VEGFR2 L/DF*X ...

Experiment [2] has as its target Fc-fused MET (His-/hFc-tagged human MET ectodomain) (Homo sapiens, UniProt P08581). As to the kind of experiment: SPR binding kinetics of selected macrocyclic peptides to Fc-fused MET.
Experiment [3] concerns the target T1, ectodomain of MET (hepatocyte growth factor receptor) fused to Fc (UniProt P08581 25-932).
T1 construct: MET, hepatocyte growth factor receptor, a receptor tyrosine kinase; ectodomain; also called MET-Fc; Fc-tagged MET
Put plainly: SPR; macrocyclic peptides on MET; concentration-dependent sensorgrams fitted by a 1:1 binding model. Conditions: both partners purified. For orientation: In SPR one partner is held on a chip, and binding of the other changes the refractive index at the surface.

Where [4] appears, read: library L/DY*X4-15C*, mRNA display (RaPID system), ref (16), read-out: KD (Table S1A, screening target cMET).

Sequence of Fc-fused MET (His-/hFc-tagged human MET ectodomain) (P08581 25-932 limits assumed): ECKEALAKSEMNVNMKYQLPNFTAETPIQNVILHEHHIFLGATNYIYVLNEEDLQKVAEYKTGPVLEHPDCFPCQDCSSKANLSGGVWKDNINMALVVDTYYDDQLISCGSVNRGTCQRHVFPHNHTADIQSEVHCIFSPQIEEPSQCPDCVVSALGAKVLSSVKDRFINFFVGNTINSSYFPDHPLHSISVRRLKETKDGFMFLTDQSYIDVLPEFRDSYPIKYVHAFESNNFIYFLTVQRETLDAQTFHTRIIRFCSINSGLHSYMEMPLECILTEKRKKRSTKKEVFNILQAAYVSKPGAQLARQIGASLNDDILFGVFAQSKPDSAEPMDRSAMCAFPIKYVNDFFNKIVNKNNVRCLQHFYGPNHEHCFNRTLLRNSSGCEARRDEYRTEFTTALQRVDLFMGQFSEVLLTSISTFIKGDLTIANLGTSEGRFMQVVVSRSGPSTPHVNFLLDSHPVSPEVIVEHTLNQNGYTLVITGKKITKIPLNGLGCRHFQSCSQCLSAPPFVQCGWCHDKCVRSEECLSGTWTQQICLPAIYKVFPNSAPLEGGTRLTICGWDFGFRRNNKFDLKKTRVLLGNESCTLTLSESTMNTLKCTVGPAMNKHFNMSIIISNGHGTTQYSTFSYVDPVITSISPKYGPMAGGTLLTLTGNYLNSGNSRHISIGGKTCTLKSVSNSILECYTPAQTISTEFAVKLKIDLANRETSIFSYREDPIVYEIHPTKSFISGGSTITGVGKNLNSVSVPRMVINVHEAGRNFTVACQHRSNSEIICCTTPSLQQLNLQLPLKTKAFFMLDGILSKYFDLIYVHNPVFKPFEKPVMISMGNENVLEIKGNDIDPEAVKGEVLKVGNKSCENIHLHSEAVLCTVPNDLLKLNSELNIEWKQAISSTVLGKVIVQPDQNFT

What is called Kd is the free concentration of one partner at which half of the binding sites on the other are occupied at equilibrium, for simple one-to-one binding. “DY*WYYAWDQTYKAFPC* (sidechain bridge or staple)”: the Kd in experiment [1] (setting [4]) is 2.3 nM.

“DY*RQFNRRTHEVWNLDC* (sidechain bridge or staple)”: in experiment [1] (setting [4]), the Kd is 2.4 nM.

`CC[C@H](C)[C@@H]1NC(=O)[C@H](Cc2ccc(O)cc2)NC(=O)CSC[C@@H](C(=O)NCC(N)=O)NC(=O)[C@H]([C@@H](C)O)NC(=O)[C@H]([C@@H](C)CC)NC(=O)[C@H](Cc2ccccc2)NC(=O)[C@H](CCCNC(=N)N)NC(=O)[C@H](Cc2c[nH]c3ccccc23)NC(=O)[C@H](CC(N)=O)NC(=O)[C@@H]2CCCN2C(=O)[C@H](CO)NC(=O)[C@H](CC(N)=O)NC(=O)[C@H](Cc2ccccc2)NC(=O)[C@H](CCC(=O)O)NC(=O)[C@H](CC(N)=O)NC(=O)[C@H](Cc2c[nH]c3ccccc23)NC(=O)[C@H](CO)NC1=O` [aML5, reference compound] ({CH2CO}-YISWNEFNSPNWRFITCG-NH2; thioether N-17) came in with a kd in experiment [2] (SPR conditions as E1) of 0.00606 s⁻¹. Also, the kon in experiment [2] (pH 7.4, read-out: ka) turned out to be 539000 M⁻¹ s⁻¹; in experiment [2] (read-out: ka, Measure 1), 371000 M⁻¹ s⁻¹; in experiment [2] (read-out: ka, Measure 2), 405000 M⁻¹ s⁻¹. Also, in experiment [1] (previously determined value, read-out: KD (previous RaPID campaign)), the Kd is 19 nM.

B1: macrocyclic peptide 12-2 (peptide)
chain: {CH2CO}-YYSWSGNVSESVKWNSCG-NH2
modifications: thioether N-17
SMILES: CC(C)[C@@H]1NC(=O)[C@H](CC(N)=O)NC(=O)CNC(=O)[C@H](CO)NC(=O)[C@H](Cc2c[nH]c3ccccc23)NC(=O)[C@H](CO)NC(=O)[C@H](Cc2ccc(O)cc2)NC(=O)[C@H](Cc2ccc(O)cc2)NC(=O)CSC[C@@H](C(=O)NCC(N)=O)NC(=O)[C@H](CO)NC(=O)[C@H](CC(N)=O)NC(=O)[C@H](Cc2c[nH]c3ccccc23)NC(=O)[C@H](CCCCN)NC(=O)[C@H](C(C)C)NC(=O)[C@H](CO)NC(=O)[C@H](CCC(=O)O)NC(=O)[C@H](CO)NC1=O
As to B1, in experiment [3], the Kd amounted to 8.67 nM.
